What was measured:
[1] = system: infection of K562 cells with dengue virus; experiment: Virus infection test of K562 cells with oligosaccharide-pretreated dengue virus, antigen positive cells by flow cytometer; assay type: cell-based; conditions: virus pretreated with oligosaccharide at 28° C. for 30 minutes, infection at 37° C. for 2 hours
Description: In any cases, 1 mM stock solution was prepared with sterile PBS(−). This solution was appropriately diluted and used for the infection inhibition test.
Dilution was carried out with serum-free RPMI medium (SF-RPMI) containing 0.2% BSA so as to give a final virus concentration of 3×105 FFU (focus forming unit)/sample, and the solution was stirred well and placed on ice.
To 630 μl (virus volume per 1 sample) of the dengue virus solution prepared in (2) described above, an equivalent amount of a diluted solution containing an oligosaccharide was added, stirred well, and incubated at 28° C. for 30 minutes. This solution was used as a pretreated virus solution.
In addition, as a negative control, the one obtained by mixing PBS(−) with the virus solution was used.
After K562 cells were washed once with SF-RPMI, the cells were prepared at 1×10^6 cells/ml with 0.1% BSA-SF-RPMI. This cell suspension was dispensed in 100 μl aliquots into tubes. Thereto was added the pretreated virus solution, stirred gently, and infection of cells was carried out at 37° C. for 2 hours. During this time, the solution in the tube was gently stirred every 20 minutes. After the solution was centrifuged at 3,400 rpm for 3 minutes, the virus solution was removed, and the cells were washed 3 times with 0.1% BSA-SF-RPMI. To the cell pellet, 2 ml of RPMI medium containing 2% serum (2% FCS-RPMI) was added, and suspended. […]

dengue virus infection = conditions: rhesus monkeys; cited from earlier work
[2] = system: binding of dengue virus to K562 cells; experiment: Inhibition of binding of dengue virus to K562 cell surface, flow cytometer (Example 2); assay type: cell-based
Description: After K562 cells were cultured until confluent, the cells were dispensed into a microtube to be 2×10^5 cells/0.1 ml. After this microtube was centrifuged at 4° C. for 2 minutes at 10,000 rpm, the obtained cell pellet was washed once with 1 ml of PBS containing 0.1% BSA. After a dengue virus solution (2,000 units/ml) and PG (0, 100, 200 or 500 μM) or GA1 (500 μM), which is a reference glycolipid, were preincubated in PBS containing 0.1% BSA at 4° C. for 1 hour, 100 μl of each of the solutions was added to K562 cells, and the virus was allowed to bind to the cell at 4° C. for 1 hour. Incidentally, as virus(−), only PBS containing 0.1% BSA was added in the same amount. After the reaction, the cells were washed 3 times with 1 ml of chilled PBS(−), 100 μl of a solution of human anti-flavivirus antiserum (lot No. 1), which had been diluted to 200-fold, was added, respectively, as a primary antibody, well suspended, and reacted at 4° C. for 30 minutes. The cells were washed 3 times with 1 ml of chilled PBS(−), and 100 μl of a solution of a FITC-labeled goat anti-human IgG (Zymed), which had been diluted to 50-fold, was added, respectively, as a secondary antibody and shielded from light. Then, they were reacted at 4° C. for 30 minutes. […]

[3] = system: binding of dengue virus to K562 cells; experiment: Inhibitory activity on binding of dengue virus to K562 cell surface, flow cytometer (Example 3); assay type: cell-based
Description: After K562 cells were cultured until confluent, the cells were dispensed into a microtube to be 4×10^5 cells/0.1 ml. After this microtube was centrifuged at 4° C. for 3 minutes at 3,500 rpm, the obtained cell pellet was washed once with 1 ml of PBS containing 0.1% BSA. After it was further centrifuged at 4° C. for 3 minutes at 3,500 rpm, a dengue virus stock solution was diluted with PBS containing 0.1% BSA to the concentrations of 5,000 units/ml, 2,000 units/ml, 1,000 units/ml, and 500 units/ml, respectively. Then, 100 μl of each of the solutions was added to the K562 cells, and reacted at 4° C. for 1 hour.
Incidentally, as virus(−), a solution to which only PBS containing 0.1% BSA was added in the same amount was used.
After the reaction, the cells were washed 3 times with 1 ml of chilled PBS(−), 100 μl of a solution of human anti-flavivirus antiserum (lot No. 1), which had been diluted to 200-fold, was added, respectively, as a primary antibody, well suspended, and reacted at 4° C. for 30 minutes. […]
K562 cells (1×10^5 cells) were seeded on a 24-well culture plate, and the total volume was made up to 1 ml with RPMI medium. […] The solution was transferred to a microtube, and virus binding was evaluated by the method described in (1).

[4] = system: dengue virus (D2Th7 strain); experiment: TLC/virus-binding assay of glycolipids; conditions: HPLC fractions of the neutral glycolipid fraction of mosquito-derived C6/36 cells
Description: The neutral glycolipid fractions I to IV obtained in the foregoing (c) (10 μl each), and as a reference standard, LacCer (1 μl), CTH (2 μl), paragloboside (PG: Galβ1-4GlcNAcβ1-3Galβ1-4Glcβ1-1′Cer) (2 μl), GA1 (Galβ1-3GalNAcβ1-4Galβ1-4Glcβ1-1′Cer) (2 μl), globoside (GalNAcβ1-3Galα1-4Galβ1-4Glcβ1-1′Cer) (2 μl) were spotted on TLC plates (Polygram Sil G), developed with acetone once, and developed with CHCl3/MeOH/12 mM MgCl2 (50/40/10, by vol). Then, orcinol reagent was sprayed and the plate was heated at 110° C., whereby color reaction was developed. With regard to the neutral glycolipid fractions I to IV, TLC/virus-binding assay was carried out by the method described above.
The neutral glycolipid fraction II-2 (10 μl) obtained by the foregoing method described in (1), PI (10 μl), PG (2 μl) and globoside (1 μl) were spotted on a TLC plate (Polygram Sil G), developed with acetone once, and developed with CHCl3/MeOH/12 mM MgCl2 (50/40/10, by vol). […]
Subsequently, 2.5 ml of human anti-flavivirus antiserum diluted to 1,000-fold with Solution A was added and reacted at room temperature for 1 hour. […] Finally, the plates were reacted with 2.5 ml of a color-developing substrate solution (0.1 M citrate buffer pH 6.0 (2.5 ml), 0.11 M 4-chloro-1-naphthol in CH3CN (50 μl), 0.06 M DEPDA in CH3CN (50 μl), 30% H2O2 (5 μl)), and bound virus particles were detected. […]

## CC(=O)N[C@H]1[C@H](O[C@H]2[C@@H](O)[C@@H](CO)O[C@@H](O[C@H]3[C@H](O)[C@@H](O)C(O)O[C@@H]3CO)[C@@H]2O)O[C@H](CO)[C@@H](O[C@@H]2O[C@H](CO)[C@H](O)[C@H](O)[C@H]2O)[C@@H]1O (stereo partly drawn) [paragloboside saccharide chain, Galβ1-4GlcNAcβ1-3Galβ1-4Glc]
[1]
  inhibition of infection of K562 cells with dengue virus (FIG. 9): inhibited the infection of K562 cells with dengue virus depending on the concentration

## NC(=O)c1ncn([C@@H]2O[C@H](CO)[C@@H](O)[C@H]2O)n1 [ribavirin]
Dengue virus infection
  adverse effects induced: anemia or thrombocytosis
  preventive effect against dengue virus infection: did not show a preventive effect

## Galβ1-3GalNAcβ1-4Galβ1-4Glcβ1-1′Cer [GA1, reference compound]
[2]; 500 μM, preincubated with virus 2,000 units/ml at 4° C. for 1 hour
  inhibition of binding of dengue virus to K562 cells (FIG. 5): could not inhibit
[3]; negative control, GA1 500 μM
  effect on binding of dengue virus to the cell surface (FIG. 6): not affected at all

## Galβ1-4GlcNAcβ1-3Galβ1-4Glcβ1-1′Cer [paragloboside]
[2]; PG 100, 200 or 500 μM preincubated with virus 2,000 units/ml at 4° C. for 1 hour
  inhibition of binding of dengue virus to K562 cells (FIG. 5): inhibited depending on the concentration of PG
[3]; paragloboside 100, 200 or 500 μM, virus 2,000 units/ml
  inhibition of the binding of dengue virus to K562 cells (FIG. 6): inhibition of the binding of dengue virus to K562 cells is caused depending on the concentration of paragloboside

## Galβ1-4GlcNAcβ1-3Manβ1-4Glcβ1-1Cer [Fraction 15]
[4]
  binding of purified glycolipids to dengue virus on TLC plate (FIG. 8): binds to the virus very strongly

## GlcNAcβ1-3Manβ1-4Glcβ1-1Cer [Fraction 13]
[4]
  binding of purified glycolipids to dengue virus on TLC plate (FIG. 8): binds to the virus very strongly

Reference: patent US20060104985A1, “Dengue virus infection inhibitor” (priority 2002, published 2006)
